Molecular target: MAPK14 (human) (UniProt Q16539)
Assay: Enzyme Assay

MAPK14 (human), sequence (Q16539 whole entry, looked up): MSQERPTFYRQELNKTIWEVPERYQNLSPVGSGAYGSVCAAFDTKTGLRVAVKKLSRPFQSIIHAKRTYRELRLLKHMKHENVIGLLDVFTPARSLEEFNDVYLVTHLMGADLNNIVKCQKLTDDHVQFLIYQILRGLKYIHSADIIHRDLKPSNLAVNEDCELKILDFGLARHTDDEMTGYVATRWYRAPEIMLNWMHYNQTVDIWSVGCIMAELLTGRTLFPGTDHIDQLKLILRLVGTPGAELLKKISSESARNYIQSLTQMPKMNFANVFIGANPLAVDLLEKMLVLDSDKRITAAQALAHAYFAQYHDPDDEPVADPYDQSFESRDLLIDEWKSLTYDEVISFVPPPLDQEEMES

Row | SMILES | IC50 [µM]
1 | Cn1cc(-n2nc(C(C)(C)C)cc2NC(=O)N[C@H]2CC[C@@H](Oc3ccc4nnc(N5CCCCC5)n4c3)c3ccccc32)cn1 | < 0.01
2 | CN(C)CCOc1cccc(-n2nc(C(C)(C)C)cc2NC(=O)N[C@H]2CC[C@@H](Oc3ccc4nnc(N5CCCCC56CC6)n4c3)c3ccccc32)c1 | < 0.01
3 | C[C@H]1CCCCN1c1nnc2ccc(O[C@@H]3CC[C@H](NC(=O)Nc4cc(C(C)(C)C)nn4-c4cccc(CCN5CCOCC5)c4)c4ccccc43)cn12 | < 0.01
4 | Cc1ccc(-n2nc(C(C)(C)C)cc2NC(=O)N[C@H]2CC[C@@H](Oc3ccc4nnc(NC(C)C)n4c3)c3ccccc32)cc1 | < 0.01
5 | CCN(CC)CCOc1cccc(-n2nc(C(C)(C)C)cc2NC(=O)N[C@H]2CC[C@@H](Oc3ccc4nnc(N5CCCC[C@@H]5C)n4c3)c3ccccc32)c1 | < 0.01
6 | CCN1CCC[C@H]1c1nnc2ccc(O[C@@H]3CC[C@H](NC(=O)Nc4cc(C(C)(C)C)nn4-c4ccc(C)cc4)c4ccccc43)cn12 | < 0.01
7 | CN1CCC[C@H]1c1nnc2ccc(O[C@@H]3CC[C@H](NC(=O)Nc4cc(C(C)(C)C)nn4-c4ccc(CO)cc4)c4ccccc43)cn12 | < 0.01
8 | C[C@@H]1CCC[C@H](C)N1c1nnc2ccc(O[C@@H]3CC[C@H](NC(=O)Nc4cc(C(C)(C)C)nn4CCN4CCOCC4)c4ccccc43)cn12 | < 0.01
9 | CC(C)(C)c1cc(NC(=O)N[C@H]2CC[C@@H](Oc3ccc4nnc(N5CCCCC5)n4c3)c3ccccc32)n(-c2ccc(CO)cc2)n1 | < 0.01
10 | CN1CCN(Cc2ccc(-n3nc(C(C)(C)C)cc3NC(=O)N[C@H]3CC[C@@H](Oc4ccc5nnc(N6CCCCC6)n5c4)c4ccccc43)cc2)CC1 | < 0.01
11 | Cc1ccc(-n2nc(C(C)(C)C)cc2NC(=O)N[C@H]2CC[C@@H](Oc3ccc4nnc([C@]5(CO)CCCN5C)n4c3)c3ccccc32)cc1 | < 0.01
12 | C[C@H]1CCCCN1c1nnc2ccc(O[C@@H]3CC[C@H](NC(=O)Nc4cc(C(C)(C)C)nn4-c4cccc(CN5CCC(F)CC5)c4)c4ccccc43)cn12 | < 0.01
13 | C[C@H]1CCCCN1c1nnc2ccc(O[C@@H]3CC[C@H](NC(=O)Nc4cc(C(C)(C)C)nn4-c4cccc(OCCN5CCCN(C)CC5)c4)c4ccccc43)cn12 | < 0.01
14 | Cc1ccc(-n2nc(C(C)(C)C)cc2NC(=O)N[C@H]2CC[C@@H](Oc3ccc4nnc(CCN5CCN(C)CC5)n4c3)c3ccccc32)cc1 | < 0.01

Continued, values first:

Row | IC50 [µM] | SMILES
15 | < 0.01 | COCC(=O)Nc1cc(O[C@@H]2CC[C@H](NC(=O)Nc3cc(C(C)(C)C)nn3-c3ccc(C)cc3)c3ccccc32)ccn1
16 | 0.1 to 0.5 | Cc1ccc(-n2nc(C(C)(C)C)cc2NC(=O)N[C@H]2CC[C@@H](OCCN3CCOCC3)c3ccccc32)cc1
17 | < 0.01 | Cc1ccc(-n2nc(C(C)(C)C)cc2NC(=O)N[C@H]2CC[C@@H](Oc3ccc4nnc(N5CCCCC5)n4c3)c3ccccc32)cn1
18 | < 0.01 | Cc1ccc(-n2nc(C(C)(C)C)cc2NC(=O)N[C@H]2CC[C@@H](Oc3ccc4nnc(N5CCC(CO)CC5)n4c3)c3ccccc32)cc1
19 | < 0.01 | Cc1ccc(-n2nc(C(C)(C)C)cc2NC(=O)N[C@H]2CC[C@@H](Oc3ccc4nnc(CCN5CCCC5)n4c3)c3ccccc32)cc1
20 | < 0.01 | Cc1ccc(-n2nc(C(C)(C)C)cc2NC(=O)N[C@H]2CC[C@@H](Oc3ccc4nnc(CC5CCN(CC(F)F)CC5)n4c3)c3ccccc32)cc1
21 | < 0.01 | Cc1ccc(-n2nc(C(C)(C)C)cc2NC(=O)N[C@H]2CC[C@@H](Oc3cc(C)c4nnc([C@@H]5CCCN5C)n4c3)c3ccccc32)cc1
22 | < 0.01 | Cc1ccc(-n2nc(C(C)(C)C)cc2NC(=O)N[C@H]2CC[C@H](Oc3ccc4nnc([C@@H]5CCCN5C)n4c3)c3ccccc32)cc1
23 | < 0.01 | C[C@H]1CCCCN1c1nnc2ccc(O[C@@H]3CC[C@H](NC(=O)Nc4cc(C(C)(C)C)nn4-c4cccc(CCN5CCCCC5)c4)c4ccccc43)cn12
24 | < 0.01 | Cc1ccc(-c2nc(C(C)(C)C)[nH]c2NC(=O)N[C@H]2CC[C@@H](Oc3ccc4nnc(N5CCCCC5)n4c3)c3ccccc32)cc1
25 | < 0.01 | CN(C)CCn1cnc(-n2nc(C(C)(C)C)cc2NC(=O)N[C@H]2CC[C@@H](Oc3ccc4nnc(N5CCCCC5)n4c3)c3ccccc32)c1
